{"source": "paper PMC6078987", "about": "“Molecular insights into antibiotic resistance - how a binding protein traps albicidin” (Nature Communications, 2018)", "key": {"AlbASCTD": {"biological_target": "AlbASCTD (Klebsiella oxytoca, UniProt Q8KRS7)", "assay": "Fluorescence quenching binding assay with AlbASCTD", "details": "AlbASCTD 100 nM, n constrained to 1", "experimental": "(§1) Fluorescence quenching measurements were performed by monitoring tryptophan fluorescence of AlbAS (20 nM), AlbAL (20 nM), AlbASNTD, and AlbASCTD (100 nM) on a FluoroMax 2 spectrometer from Horiba (Potsdam, Germany). The excitation wavelength was set to λexc = 280 nm. Emission spectra were recorded from λem = 290–450 nm with a scanning speed of 1 nm s^−1 and an integration time of 1 s. The excitation and emission slit widths were set to 8 and 4 nm, respectively. Proteins were solved in 50 mM sodium phosphate buffer with 150 mM NaCl and 0.01% DMSO at pH 6.8. All measurements were performed twice and the standard deviation is given for the Kd and the Hill factor n. Data evaluation was performed by integration of the emission band (318–410 nm for AlbAS, 316–412 nm for AlbAL, and 319–390 nm for AlbASNTD and AlbASCTD) for every titration step. The area under the curve (AUC) of the buffer blank (buffer with 0.01% DMSO) was subtracted from the measured titration data. The quenching factor was determined by subtraction of AUCs for each titration step from the AUC of the protein in the absence of ligand. For determination of the AlbAS– and AlbAL–albicidin Kd values, the data were fitted to Eq. (2).2 Y=Bmax[L]^n/Kdn+[L]^n where [L], n, and Bmax denote the total ligand concentration, the Hill coefficient, and the maximum binding capacity of the protein, respectively."}, "AlbAL": {"biological_target": "AlbAL (Klebsiella oxytoca, UniProt A0A9P0U153)", "sequence (A0A9P0U153 entry or part of it)": "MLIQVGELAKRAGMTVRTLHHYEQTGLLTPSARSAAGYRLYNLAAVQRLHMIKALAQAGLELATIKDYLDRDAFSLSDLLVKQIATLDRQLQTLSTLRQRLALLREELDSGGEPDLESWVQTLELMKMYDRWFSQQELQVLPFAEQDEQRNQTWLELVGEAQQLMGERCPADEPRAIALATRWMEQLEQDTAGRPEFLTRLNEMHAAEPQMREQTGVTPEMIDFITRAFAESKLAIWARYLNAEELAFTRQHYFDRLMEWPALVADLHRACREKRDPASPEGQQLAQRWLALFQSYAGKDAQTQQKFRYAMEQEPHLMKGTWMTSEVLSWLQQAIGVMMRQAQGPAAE", "assay": "Fluorescence quenching binding assay with AlbAL", "experimental": "as §1"}, "GyrBA59": {"biological_target": "T1, GyrBA59 (Escherichia coli, UniProt P0AES4+P0AES6)", "T1 construct": "combining the full-length GyrB and a C-terminally truncated GyrA segment (59 kDa); a C-terminally truncated GyrA segment (59 kDa); 6x His (TEV-cleavable) (N, cleaved yes); made in house; host or cells: E. coli BL21 DE3, pET-28a(+)", "T1 sequence (P0AES4 whole entry, looked up, other chains not shown, the tested form may be a part)": "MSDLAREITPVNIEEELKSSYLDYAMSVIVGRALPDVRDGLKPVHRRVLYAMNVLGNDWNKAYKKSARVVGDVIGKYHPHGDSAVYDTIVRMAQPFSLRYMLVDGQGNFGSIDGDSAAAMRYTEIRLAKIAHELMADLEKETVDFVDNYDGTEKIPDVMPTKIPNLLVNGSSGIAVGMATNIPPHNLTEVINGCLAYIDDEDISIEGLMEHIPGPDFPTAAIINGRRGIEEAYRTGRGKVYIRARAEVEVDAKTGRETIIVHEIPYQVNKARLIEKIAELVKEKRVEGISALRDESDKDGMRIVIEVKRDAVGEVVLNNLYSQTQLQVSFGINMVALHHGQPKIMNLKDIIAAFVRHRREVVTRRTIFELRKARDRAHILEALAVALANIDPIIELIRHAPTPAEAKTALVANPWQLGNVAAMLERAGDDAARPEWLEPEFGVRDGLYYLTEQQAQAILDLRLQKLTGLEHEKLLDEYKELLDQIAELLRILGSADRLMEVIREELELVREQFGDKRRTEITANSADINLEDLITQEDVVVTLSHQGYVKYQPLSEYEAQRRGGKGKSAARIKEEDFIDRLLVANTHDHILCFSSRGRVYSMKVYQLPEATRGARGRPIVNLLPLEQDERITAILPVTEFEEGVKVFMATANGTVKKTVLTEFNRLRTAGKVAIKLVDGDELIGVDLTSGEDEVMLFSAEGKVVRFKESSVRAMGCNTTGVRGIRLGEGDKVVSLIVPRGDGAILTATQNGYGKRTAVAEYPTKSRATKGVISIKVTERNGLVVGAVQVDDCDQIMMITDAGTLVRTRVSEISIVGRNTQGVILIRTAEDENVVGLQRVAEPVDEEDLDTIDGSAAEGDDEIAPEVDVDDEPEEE", "assay": "DNA cleavage assay", "assay_type": "biochemical, E. coli", "details": "5 nM – 5120 nM albicidin, pBR322, 1.4 mM ATP", "experimental": "E. coli DNA gyrase cleavage assays were performed by incubating 250 ng of supercoiled pBR322 plasmid DNA (Inspiralis, Norwich, UK) with 25 nM of GyrBA59 protein in 20 µL reactions containing 35 mM Tris-HCl (pH 8.0), 24 mM KCl, 4 mM MgCl2, 2 mM DTT, 1.8 mM spermidine, 1.4 mM ATP, 6.5% (w/v) glycerol, and 0.1 mg mL^−1 bovine serum albumin in the presence or absence of various concentrations of albicidin (final concentration of 5% dimethyl sulfoxide (DMSO), incubation at 37 °C for 30 min). Linearized DNA was released by further incubation with 0.2% (w/v) SDS and 0.1 mg mL^−1 proteinase K (Promega, Madison, USA) at 37 °C for 30 min. The reaction was stopped by addition of 20 µL of reaction stop buffer (STEB buffer) (40% (w/v) sucrose, 100 mM Tris-HCl (pH 8.0), 10 mM EDTA, and 0.5 mg mL^−1 Bromophenol Blue) and precipitation using 30 µL of chloroform/isoamyl alcohol 24:1 (v:v). Samples were analyzed by electrophoresis in 1% w/v agarose gel containing 0.5 […] followed by photography under ultraviolet illumination."}, "AlbA": {"biological_target": "AlbA", "parameters": "method as in PMID 9493391", "details": "read-out: previously reported Kd; cited from earlier work"}, "AlbAS": {"biological_target": "T2, AlbAS (Klebsiella oxytoca, UniProt Q8KRS7)", "T2 sequence (Q8KRS7 1-221)": "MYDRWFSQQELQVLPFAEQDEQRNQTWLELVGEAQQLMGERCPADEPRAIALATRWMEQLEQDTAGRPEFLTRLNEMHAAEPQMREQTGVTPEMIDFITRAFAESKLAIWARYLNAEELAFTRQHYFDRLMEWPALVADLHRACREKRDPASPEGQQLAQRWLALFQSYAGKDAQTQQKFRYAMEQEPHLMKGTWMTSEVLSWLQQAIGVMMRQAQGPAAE", "assay": "1H-15N HSQC NMR binding assay", "details": "15N-labeled AlbAS, 1.5-fold excess of ligand", "experimental": "For binding studies with albicidin and its derivatives, each ligand was dissolved in 100% d6-DMSO and added to ^15N-labeled AlbAS or ^2H, ^15N-labeled AlbAL in 50 mM sodium hydrogen phosphate (pH 6.8), 150 mM NaCl buffer (usually 0.24 mM AlbAS or AlbAL in 85% buffer, 5% d6-DMSO, and 10% D2O) yielding a 1.5-fold excess of the ligand. After incubation for 20 min at room temperature in the dark, the sample was centrifuged at 20 000 × g for 3 min and the supernatant was transferred to a 5 mm NMR tube. The AlbAS blank sample (Supplementary Figure 14) was measured in 100% buffer without addition of ligands and DMSO. Spectra were recorded on a Bruker Avance III 700 MHz NMR spectrometer (Bruker BioSpin, Rheinstetten, Germany) with a TXI probe head. Standard Bruker pulse sequences were used. 2D ^1H-^15N HSQC spectra were recorded at 298 K with acquisition times of 90 and 22 ms for the ^1H and ^15N dimension, respectively. The experiments were accumulated with ≥16 scans depending on protein sample concentration. 2D ^1H-^15N TROSY spectra were accumulated with 256 scans and acquisition times of 90 and 22 ms for the ^1H and ^15N dimension, respectively. Several AlbAS–albicidin samples were measured with the same result and a representative spectrum is given for the figures in the main manuscript and the SI. NMR experiments with AlbAS and albicidin analogs were conducted once with accumulation of ≥16 scans depending on protein concentration. For alignment of HSQC and TROSY spectra, the TROSY spectrum was corrected by 1/2 ^1JNH in both dimensions. […]"}}}
{"molecule": "COc1c(NC(=O)c2ccc(NC(=O)c3ccc(NC(=O)[C@H](CC#N)NC(=O)c4ccc(NC(=O)/C(C)=C/c5ccc(O)cc5)cc4)cc3)c(OC)c2O)ccc(C(=O)O)c1O", "note": "[albicidin]", "values": [{"measurement": "Kd", "setting": "AlbASCTD", "result": "600 ± 100", "unit": "nM"}, {"measurement": "Kd", "setting": "AlbAL", "result": "7.4 ± 0.9", "unit": "nM"}, {"measurement": "Hill coefficient, n", "setting": "AlbAL; AlbAL 20 nM, fluorescence quenching", "result": "2.0 ± 0.2"}, {"measurement": "stabilization of DNA cleavage complex (in words)", "setting": "GyrBA59", "result": "stabilizing the cleavage complex"}, {"measurement": "Kd", "setting": "AlbA", "result": 64, "unit": "nM"}, {"measurement": "binding to AlbAS by HSQC signal pattern (in words)", "setting": "AlbAS", "result": "strong ligand binding in the nM–pM range"}]}
